Read-outs that look alike come from different tables or passages of the source.

Data set [1] relates to KKAy mouse. Particulars: oral dose of 900 mg/kg/day; cited from earlier work.
Data set [2] relates to rat. As to conditions: oral administration; cited from earlier work.
Data set [3] deals with diabetic patients. Particulars: cited from earlier work.
For data set [4], the system named is C57BL/KsJ db/db mice. Kind of data set: Consumption of water and food by db/db mice. Particulars: male db/db mice, control = 100.
Source text: The C57BL/KsJ db/db mice used in the experiments reported here below were supplied by Jackson Lab (via Ch. River).
In data set [5] the test system is ob/ob mouse. As to the kind of experiment: Reduction in hyperglycaemia in the ob/ob mouse (laboratory experiments). Particulars: oral dose of 600 mg/kg/day.
The subject of data set [6] is C57BL/KsJ db/db mice. As to the kind of experiment: Serum glucose levels in db/db mice after 4 days of subcutaneous treatment. Particulars: male db/db mice, postabsorption conditions, 8 hours after last treatment, control = 100.
Where [7] appears, read: 100 mg/kg s.c. twice daily for 4 days.
[8] abbreviates: 25 mg/kg s.c. twice daily for 4 days.

One may read the LD50 as the dose expected to kill half of the subjects tested. With `CN(C)C(=N)N=C(N)N` [Metformin], the reduction in hyperglycaemia in data set [1] is recorded as 50%; in data set [5], 22%. In addition, in data set [2], the LD50 is 1000 mg/kg. Also, the reduction of hyperglycaemia is on record as 25% in data set [3] (in combination with sulphonylureas); 20-30% in data set [3] (monotherapy after the failure of diet and physical exercise). Moreover, the “Food % (consumption, variation vs Control)” value (from here on “Food %”) in data set [4] (setting [7]) stood at 119%. Besides, the “Water % (consumption, variation vs Control)” value (shortened to “Water %”) in data set [4] (setting [7]) worked out at 113%. In data set [6] (setting [7]), the “Glucose % (variation vs Control)” value came to 104%.

For `CC(C)=CCNC(=N)NCCCCN.CS(=O)(=O)O` [ST2369, N-(4-aminobutyl)-N′-(γ,γ-dimethylallyl)guanidine methane sulphonate], in data set [4] (setting [8]), the “Food %” value was determined as 63% and the “Water %” value is reported as 47%.

Consider `CC(C)=CCNC(=N)NCCCCCCN.CS(=O)(=O)O` [ST2370, N-(γ,γ-dimethylallyl)-N′-(6-aminohexyl)guanidine methane sulphonate], for which, in data set [4] (setting [8]), the “Food %” value is on record as 81% and the “Water %” value amounted to 47%. The “Glucose % (variation vs Control)” value in data set [6] (setting [8]) was 69 □ %.
